{
  "source": "patent US6358885B1",
  "about": "“Substituted phenylheterocyclic herbicides” (Mississippi State University, priority 1992, dated 2002)",
  "key": {"[1]": {"system": "sorghum", "test": "Test C preemergence/postemergence greenhouse plant response rating 0 to 100", "assay_type": "in vivo, Sorghum bicolor", "details": "PREEMERGENCE", "text": "(§1) The compounds evaluated in this test were formulated in a non-phytoxic solvent and applied to the soil surface before plant seedlings emerged (preemergence application), to water that covered the soil surface (flood application), and to plants that were in the one-to-four leaf stage (postemergence application). A sandy loam soil was used for the preemergence and postemergence tests, while a silt loam soil was used in the flood test. Water depth was approximately 2.5 cm for the flood test and was maintained at this level for the duration of the test. Plant species in the preemergence and postemergence tests consisted of barley (Hordeum vulgare), bedstraw (Galium aparine), blackgrass (Alopecurus myosuroides), chickweed (Stellaria media), corn (Zea mays), cotton (Gossypium hirsutum), crabgrass (Digitaria sanguinalis), downy brome (Bromus tectorum), giant foxtail (Setaria faberii), lambsquarters (Chenopodium album), morningglory (Ipomoea hederacea), pigweed ([…]), rape (Brassica napus), ryegrass (Lolium multiflorum), sorghum (Sorghum bicolor), soybean (Glycine max), speedwell (Veronica persica), sugar beet (Beta vulgaris), velvetleaf (Abutilon theophrasti), wheat (Triticum aestivum), wild buckwheat (Polygonum convolvulus), and wild oat (Avena fatua). All plant species were planted one day before application of the compound for the preemergence portion-of this test. Plantings of these species were adjusted to produce plants of appropriate size for the post-emergence portion of the test. […] All plant species were grown using normal greenhouse practices. Visual evaluations of injury expressed on treated plants, when compared to untreated controls, were recorded approximately fourteen to twenty one days after application of the test compound. […] A dash (-) response means no test result."}, "[2]": {"system": "ryegrass", "test": "Test C preemergence/postemergence greenhouse plant response rating 0 to 100", "assay_type": "in vivo, Lolium multiflorum", "details": "PREEMERGENCE; for Plant response rating Ryegrass: 0 to 100 scale", "text": "as §1"}, "[3]": {"system": "wheat", "test": "Test B preemergence/postemergence greenhouse plant response rating 0 to 10", "assay_type": "in vivo, Triticum aestivum", "details": "0 to 10 scale", "in_short": "(§2)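 Planted seeds are treated preemergence with compound dissolved in a non-phytotoxic solvent, while postemergence applications go onto plants of two to eighteen cm. Plants stay in the greenhouse twelve to sixteen days and are then rated visually relative to controls.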"}, "[4]": {"system": "wild buckwheat", "test": "Test C preemergence/postemergence greenhouse plant response rating 0 to 100", "assay_type": "in vivo, Polygonum convolvulus", "details": "PREEMERGENCE", "text": "as §1"}, "[5]": {"system": "lambsquarters", "test": "Test B preemergence/postemergence greenhouse plant response rating 0 to 10", "assay_type": "in vivo, Chenopodium album", "details": "0 to 10 scale", "in_short": "as §2"}, "[6]": {"system": "cotton", "test": "Test B preemergence/postemergence greenhouse plant response rating 0 to 10", "assay_type": "in vivo, Gossypium hirsutum", "details": "0 to 10 scale", "in_short": "as §2"}, "[7]": {"system": "blackgrass", "test": "Test B preemergence/postemergence greenhouse plant response rating 0 to 10", "assay_type": "in vivo, Alopecurus myosuroides", "details": "0 to 10 scale", "in_short": "as §2"}, "[8]": {"system": "downy brome", "test": "Test C preemergence/postemergence greenhouse plant response rating 0 to 100", "assay_type": "in vivo, Bromus tectorum", "details": "PREEMERGENCE; for Plant response rating Downy Brome: 0 to 100 scale", "text": "as §1"}, "[9]": {"system": "wild oat", "test": "Test B preemergence/postemergence greenhouse plant response rating 0 to 10", "assay_type": "in vivo, Avena fatua", "details": "0 to 10 scale", "in_short": "as §2"}, "[10]": {"system": "rape", "test": "Test C preemergence/postemergence greenhouse plant response rating 0 to 100", "assay_type": "in vivo, Brassica napus", "details": "PREEMERGENCE; for Plant response rating, Rape: 0 to 100 scale", "text": "as §1"}, "[11]": {"system": "sorghum", "test": "Test B preemergence/postemergence greenhouse plant response rating 0 to 10", "assay_type": "in vivo, Sorghum bicolor", "details": "0 to 10 scale", "in_short": "as §2"}, "[12]": {"system": "bedstraw", "test": "Test B preemergence/postemergence greenhouse plant response rating 0 to 10", "assay_type": "in vivo, Galium aparine", "details": "0 to 10 scale", "in_short": "as §2"}, "[13]": {"system": "wheat", "test": "Test C preemergence/postemergence greenhouse plant response rating 0 to 100", "assay_type": "in vivo, Triticum aestivum", "details": "PREEMERGENCE", "text": "as §1"}, "[14]": {"system": "crabgrass", "test": "Test C preemergence/postemergence greenhouse plant response rating 0 to 100", "assay_type": "in vivo, Digitaria sanguinalis", "details": "PREEMERGENCE; for Plant response rating, Crabgrass: 0 to 100 scale", "text": "as §1"}, "[15]": {"system": "sugar beet", "test": "Test B preemergence/postemergence greenhouse plant response rating 0 to 10", "assay_type": "in vivo, Beta vulgaris", "details": "0 to 10 scale", "in_short": "as §2"}, "[16]": {"system": "wild oat", "test": "Test C preemergence/postemergence greenhouse plant response rating 0 to 100", "assay_type": "in vivo, Avena fatua", "details": "PREEMERGENCE", "text": "as §1"}, "[17]": {"system": "barley", "test": "Test B preemergence/postemergence greenhouse plant response rating 0 to 10", "assay_type": "in vivo, Hordeum vulgare", "details": "0 to 10 scale", "in_short": "as §2"}},
  "data": [
    {"compound": "CCCN1C(=O)COc2cc(F)c(-c3nn4c(c3Br)CCCC4)cc21", "note": "[Compound 63]", "values": [
      {"measurement": "Plant response rating, Sorghum", "setting": "[1]; 250 g/ha, 0 to 100 scale", "result": 20},
      {"measurement": "Plant response rating (0 to 100), Sorghum", "setting": "[1]; Rate 4 g/ha", "result": 0},
      {"measurement": "Plant response rating (0 to 100), Sorghum", "setting": "[1]; Rate 16 g/ha", "result": 0},
      {"measurement": "Plant response rating Ryegrass", "setting": "[2]; 62 g/ha", "result": 40},
      {"measurement": "Plant response rating Ryegrass", "setting": "[2]; 250 g/ha", "result": 80},
      {"measurement": "Plant response rating (0 to 100), Ryegrass", "setting": "[2]; Rate 4 g/ha", "result": 0},
      {"measurement": "Plant response rating (0 to 100), Ryegrass", "setting": "[2]; Rate 16 g/ha", "result": 0},
      {"measurement": "Plant response rating, Wheat", "setting": "[3]; POSTEMERGENCE, Rate 10 g/ha", "result": 4},
      {"measurement": "Plant response rating, Wheat", "setting": "[3]; POSTEMERGENCE, Rate 50 g/ha", "result": 5},
      {"measurement": "Plant response rating, Wheat", "setting": "[3]; PREEMERGENCE, Rate 50 g/ha", "result": 2},
      {"measurement": "Plant response rating, Wild buckwheat", "setting": "[4]; 250 g/ha, 0 to 100 scale", "result": 100},
      {"measurement": "Plant response rating (0 to 100), Wild buckwheat", "setting": "[4]; Rate 4 g/ha", "result": 0},
      {"measurement": "Plant response rating (0 to 100), Wild buckwheat", "setting": "[4]; Rate 16 g/ha", "result": 50},
      {"measurement": "Plant response rating, Lambsquarter", "setting": "[5]; POSTEMERGENCE, Rate 10 g/ha", "result": 9},
      {"measurement": "Plant response rating, Lambsquarter", "setting": "[5]; POSTEMERGENCE, Rate 50 g/ha", "result": 10},
      {"measurement": "Plant response rating, Lambsquarter", "setting": "[5]; PREEMERGENCE, Rate 50 g/ha", "result": 10},
      {"measurement": "Plant response rating, Cotton", "setting": "[6]; POSTEMERGENCE, Rate 10 g/ha", "result": 9},
      {"measurement": "Plant response rating, Cotton", "setting": "[6]; POSTEMERGENCE, Rate 50 g/ha", "result": 10},
      {"measurement": "Plant response rating, Cotton", "setting": "[6]; PREEMERGENCE, Rate 10 g/ha", "result": 0},
      {"measurement": "Plant response rating, Cotton", "setting": "[6]; PREEMERGENCE, Rate 50 g/ha", "result": 2},
      {"measurement": "Plant response rating, Blackgrass", "setting": "[7]; POSTEMERGENCE, Rate 10 g/ha", "result": 4},
      {"measurement": "Plant response rating, Blackgrass", "setting": "[7]; POSTEMERGENCE, Rate 50 g/ha", "result": 4},
      {"measurement": "Plant response rating, Blackgrass", "setting": "[7]; PREEMERGENCE, Rate 10 g/ha", "result": 0},
      {"measurement": "Plant response rating, Blackgrass", "setting": "[7]; PREEMERGENCE, Rate 50 g/ha", "result": 3},
      {"measurement": "Plant response rating Downy Brome", "setting": "[8]; 62 g/ha", "result": 20},
      {"measurement": "Plant response rating Downy Brome", "setting": "[8]; 250 g/ha", "result": 50},
      {"measurement": "Plant response rating (0 to 100), Downy Brome", "setting": "[8]; Rate 4 g/ha", "result": 0},
      {"measurement": "Plant response rating (0 to 100), Downy Brome", "setting": "[8]; Rate 16 g/ha", "result": 0},
      {"measurement": "Plant response rating, Wild oat", "setting": "[9]; POSTEMERGENCE, Rate 10 g/ha", "result": 4},
      {"measurement": "Plant response rating, Wild oat", "setting": "[9]; POSTEMERGENCE, Rate 50 g/ha", "result": 6},
      {"measurement": "Plant response rating, Wild oat", "setting": "[9]; PREEMERGENCE, Rate 50 g/ha", "result": 3},
      {"measurement": "Plant response rating, Rape", "setting": "[10]; 62 g/ha", "result": 85},
      {"measurement": "Plant response rating, Rape", "setting": "[10]; 250 g/ha", "result": 100},
      {"measurement": "Plant response rating (0 to 100), Rape", "setting": "[10]; Rate 4 g/ha", "result": 0},
      {"measurement": "Plant response rating (0 to 100), Rape", "setting": "[10]; Rate 16 g/ha", "result": 20},
      {"measurement": "Plant response rating, Sorghum", "setting": "[11]; POSTEMERGENCE, Rate 10 g/ha", "result": 3},
      {"measurement": "Plant response rating, Sorghum", "setting": "[11]; POSTEMERGENCE, Rate 50 g/ha", "result": 5},
      {"measurement": "Plant response rating, Sorghum", "setting": "[11]; PREEMERGENCE, Rate 50 g/ha", "result": 0},
      {"measurement": "Plant response rating, Bedstraw", "setting": "[12]; POSTEMERGENCE, Rate 10 g/ha", "result": 6},
      {"measurement": "Plant response rating, Bedstraw", "setting": "[12]; POSTEMERGENCE, Rate 50 g/ha", "result": 8},
      {"measurement": "Plant response rating, Bedstraw", "setting": "[12]; PREEMERGENCE, Rate 10 g/ha", "result": 4},
      {"measurement": "Plant response rating, Bedstraw", "setting": "[12]; PREEMERGENCE, Rate 50 g/ha", "result": 10},
      {"measurement": "Plant response rating, Wheat", "setting": "[13]; 250 g/ha, 0 to 100 scale", "result": 50},
      {"measurement": "Plant response rating (0 to 100), Wheat", "setting": "[13]; Rate 4 g/ha", "result": 0},
      {"measurement": "Plant response rating (0 to 100), Wheat", "setting": "[13]; Rate 16 g/ha", "result": 0},
      {"measurement": "Plant response rating, Crabgrass", "setting": "[14]; 62 g/ha", "result": 0},
      {"measurement": "Plant response rating, Crabgrass", "setting": "[14]; 250 g/ha", "result": 70},
      {"measurement": "Plant response rating (0 to 100), Crabgrass", "setting": "[14]; Rate 4 g/ha", "result": 0},
      {"measurement": "Plant response rating (0 to 100), Crabgrass", "setting": "[14]; Rate 16 g/ha", "result": 0},
      {"measurement": "Plant response rating, Sugar beet", "setting": "[15]; POSTEMERGENCE, Rate 10 g/ha", "result": 10},
      {"measurement": "Plant response rating, Sugar beet", "setting": "[15]; POSTEMERGENCE, Rate 50 g/ha", "result": 10},
      {"measurement": "Plant response rating, Sugar beet", "setting": "[15]; PREEMERGENCE, Rate 50 g/ha", "result": 10},
      {"measurement": "Plant response rating, Wild oat", "setting": "[16]; 250 g/ha, 0 to 100 scale", "result": 85},
      {"measurement": "Plant response rating (0 to 100), Wild oat", "setting": "[16]; Rate 4 g/ha", "result": 0},
      {"measurement": "Plant response rating (0 to 100), Wild oat", "setting": "[16]; Rate 16 g/ha", "result": 0},
      {"measurement": "Plant response rating, Barley", "setting": "[17]; POSTEMERGENCE, Rate 10 g/ha", "result": 4},
      {"measurement": "Plant response rating, Barley", "setting": "[17]; POSTEMERGENCE, Rate 50 g/ha", "result": 5},
      {"measurement": "Plant response rating, Barley", "setting": "[17]; PREEMERGENCE, Rate 10 g/ha", "result": 0},
      {"measurement": "Plant response rating, Barley", "setting": "[17]; PREEMERGENCE, Rate 50 g/ha", "result": 0}
    ]}
  ]
}
